Source: patent US20200368315A1, “ANTIMICROBIAL PEPTIDES AND ADMIXTURES THEREOF SHOWING ANTIMICROBIAL ACTIVITY AGAINST GRAM-NEGATIVE PATHOGENS” (priority 2017, published 2020)
In brackets after ≈: the same amount, converted by molar mass. Several values for one entry are separate records, joined by “and”; a condition that tells them apart may be missing. Equal entries are not always repeated. Where two headings read alike, the source gives them in different places.

Columns and labels:
E. coli LMG15862 [1] = test: microbe, parasite or virus in culture; format: cell-based, Escherichia coli
Procedure: (§1) Escherichia coli, Klebsiella pneumoniae, Pseudomonas aeruginosa, Acinetobacter baumannii, Enterobacter aerogenes were grown in Luria-Bertani (LB) broth shaken (200 rpm) or on LB agar at 37° C. […] MICs tests were performed in duplicate by a liquid growth inhibition microdilution assays in sterilized polypropylene microtiter plates according to Wiegand and […] [27]. […] The suspension was diluted in a ratio of 1:100 using Mueller Hinton Broth (MHB) and the final inoculum is 5*10^5 CFU/mL. […] The antimicrobials were diluted serially by 1/2 one by one and 50 uL diluted bacterial suspension were added to each well to make the final volume to be 100 uL. Growth control was accomplished by remove 10 uL from well 11 and dilute 1000 times to plate 1/10 suspension on the solid medium. […] The number of colonies on the control agar plate should be around 50 to ensure the concentration of the inoculum and the effectiveness of the experiment. The lowest concentration of the antimicrobials that inhibits visible growth of the indicator is identified as MIC.

K. pneumoniae LMG20218 [2] = test: microbe, parasite or virus in culture; format: cell-based, Klebsiella pneumoniae; conditions: LMG20218
Procedure: as §1

P. aeruginosa LMG 6395 [3] = test: microbe, parasite or virus in culture; format: cell-based, Pseudomonas aeruginosa; conditions: LMG 6395
Procedure: as §1

A. baumannii LMG01041 [4] = test: microbe, parasite or virus in culture; format: cell-based, Acinetobacter baumannii; conditions: LMG01041
Procedure: as §1

E. aerogenes LMG 02094 [5] = test: microbe, parasite or virus in culture; format: cell-based, Enterobacter aerogenes; conditions: LMG 02094
Procedure: as §1

E. coli LMG15862 [6] = format: cell-based, Escherichia coli
Text: (§2) The test of synergistic effect was processed by conducting standard chequerboard broth microdilution assays. Nisin (Drug X) was loaded two fold serially diluted from row 1 to 10 in X-axis while GNPs (Drug Y) were loaded in eight two fold serially diluted concentrations from line A to H in Y-axis (FIG. 1). The original concentrations of peptides were MICs of each. Row 11 are used as growth control with no peptide was included, while row 12 with MHB medium-only wells was included as a sterility control as referred before. 50 uL fresh bacterial suspension was added to well 1-11 and final volume of each well on the plate is 100 uL.
(§3) To determine whether the combination therapy is additive, synergistic or antagonistic, fractional inhibitory concentration (FIC) indices were calculated. FICI=FICa+FICb=MICac/MICa+MICbc/MICb. The MICa/MICb is the MIC of compound A/B alone. MICac is the MIC of compound A in combination with compound B and MICbc is the MIC of compound B when it was combination with compound A. […]. FICa is FIC of compound A while FICb is FIC of compound B. The FICI is interpreted as follows: synergistic, FICI≤0.5; additive, 0.5<FICI<1; indifferent, 1<FICI<2; antagonistic, FICI>2.

K. pneumoniae LMG20218 [7] = format: cell-based, Klebsiella pneumoniae
Text: as §2, §3

P. aeruginosa LMG 6395 [8] = format: cell-based, Pseudomonas aeruginosa
Text: as §2, §3

A. baumannii LMG01041 [9] = format: cell-based, Acinetobacter baumannii
Text: as §2, §3

E. aerogenes LMG 02094 [10] = format: cell-based, Enterobacter aerogenes
Text: as §2, §3

A. baumannii LMG01041 [11] = conditions: MIC of GNP alone
Procedure: (§4) The test of synergistic effect was processed by conducting standard chequerboard broth microdilution assays. […] Row 11 are used as growth control with no peptide was included, while row 12 with MHB medium-only wells was included as a sterility control as referred before. 50 uL fresh bacterial suspension was added to well 1-11 and final volume of each well on the plate is 100 uL.
(§5) The test of synergistic effect was processed as method 1.4.
as §3

E. aerogenes LMG 02094 [12] = system: E. aerogenes LMG 02094
Procedure: as §4, §5, §3

E. coli LMG15862 [13] = system: E. coli LMG15862
Procedure: as §4, §5, §3

K. pneumoniae LMG20218 [14] = system: K. pneumoniae LMG20218
Procedure: as §4, §5, §3

P. aeruginosa LMG 6395 [15] = system: P. aeruginosa LMG 6395
Procedure: as §4, §5, §3

L. lactis MG1363 = conditions: MG1363
[16] = MIC of GNP when used with the MICac concentration of nisin
[17] = MIC of nisin in combination with the GNP at the MICbc concentration
[18] = MIC of GNP in combination with vancomycin at the MICac concentration
[19] = MIC of vancomycin in combination with the GNP at the MICbc concentration

CC[C@H](C)[C@H](NC(=O)[C@H](CCCNC(=N)N)NC(=O)[C@H](CCC(N)=O)NC(=O)[C@@H](NC(=O)[C@@H](NC(=O)[C@@H](N)CCCNC(=N)N)[C@@H](C)CC)C(C)C)C(=O)N[C@@H](CCCCN)C(=O)N[C@@H](CCCCN)C(=O)N[C@@H](Cc1c[nH]c2ccccc12)C(=O)N[C@@H](CC(C)C)C(=O)N[C@@H](CCCNC(=N)N)C(N)=O [GNP-8]
MICb (GNP concentration when used alone) (E. coli LMG15862 [1]; L-form GNP, E. coli LMG15862, Table 6): 12 µM | MIC value (E. coli LMG15862 [1]; LMG15862): 12 µM (≈ 17.9 µg/mL) | MIC value (K. pneumoniae LMG20218 [2]): 32 µM (≈ 47.8 µg/mL) | MICb (MIC of GNP alone) (K. pneumoniae LMG20218 [2]): 32 µM | MIC value (P. aeruginosa LMG 6395 [3]): 16 µM (≈ 23.9 µg/mL) | MICb (MIC of GNP alone) (P. aeruginosa LMG 6395 [3]): 16 µM | MIC value (A. baumannii LMG01041 [4]): >64 µM | MICb (MIC of GNP alone) (A. baumannii LMG01041 [4]): >64 µM | MIC value (E. aerogenes LMG 02094 [5]): 128 µM (≈ 191 µg/mL) | MICb (MIC of GNP alone) (E. aerogenes LMG 02094 [5]): 128 µM | MICb (E. coli LMG15862 [6]; MIC of GNP alone): 12 µM | MICbc (E. coli LMG15862 [6]; [16]): 1.5 µM | MICac (E. coli LMG15862 [6]; [17]): 1.5 µM | MICb (K. pneumoniae LMG20218 [7]; MIC of GNP alone): 32 µM | MICbc (K. pneumoniae LMG20218 [7]; [16]): 1 µM | MICac (K. pneumoniae LMG20218 [7]; [17]): 0.75 µM | MICb (P. aeruginosa LMG 6395 [8]; MIC of GNP alone): 16 µM | MICbc (P. aeruginosa LMG 6395 [8]; [16]): 0.5 µM | MICac (P. aeruginosa LMG 6395 [8]; [17]): 4.5 µM | MICb (A. baumannii LMG01041 [9]; MIC of GNP alone): >64 µM | MICbc (A. baumannii LMG01041 [9]; [16]): 4 µM | MICac (A. baumannii LMG01041 [9]; [17]): 0.19 µM | MICb (E. aerogenes LMG 02094 [10]; MIC of GNP alone): 128 µM | MICbc (E. aerogenes LMG 02094 [10]; [16]): 1 µM | MICac (E. aerogenes LMG 02094 [10]; [17]): 4 µM | MICb (A. baumannii LMG01041 [11]): >64 µM | MICb (E. aerogenes LMG 02094 [12]; MIC of GNP alone): 128 µM | MICbc (E. aerogenes LMG 02094 [12]; [18]): 8 µM and 16 µM | MICac (E. aerogenes LMG 02094 [12]; [19]): 12 µM and 6 µM | MICb (E. coli LMG15862 [13]; MIC of GNP alone): 12 µM | MICbc (E. coli LMG15862 [13]; [18]): 1.5 µM and 0.75 µM | MICac (E. coli LMG15862 [13]; [19]): 4 µM and 8 µM | MICb (K. pneumoniae LMG20218 [14]; MIC of GNP alone): 32 µM | MICbc (K. pneumoniae LMG20218 [14]; [18]): 2 µM and 1 µM | MICac (K. pneumoniae LMG20218 [14]; [19]): 4 µM and 8 µM | MICb (P. aeruginosa LMG 6395 [15]; MIC of GNP alone): 16 µM | MICbc (P. aeruginosa LMG 6395 [15]; [18]): 2 µM and 1 µM | MICac (P. aeruginosa LMG 6395 [15]; [19]): 8 µM and 16 µM | MIC value of antimicrobial compounds alone (L. lactis MG1363): 24 µM
